Data from patent publication US5912405A, “Enhancers such as acetosyringone” (Novo Nordisk A/S, priority 1994, dated 1999).

Experiments:
Assay type in all cases: biochemical
[1] = molecular target: T1, Coprinus cinereus peroxidase (CiP) (Coprinopsis cinerea, UniProt P28314); test: Initial bleaching of Chicago Sky Blue 6B (CSB) with Coprinus cinereus peroxidase and enhancers; settings: 5 μM enhancer, 20 μM H2O2, 30° C.
T1 construct: made in house
T1 sequence (P28314 21-363): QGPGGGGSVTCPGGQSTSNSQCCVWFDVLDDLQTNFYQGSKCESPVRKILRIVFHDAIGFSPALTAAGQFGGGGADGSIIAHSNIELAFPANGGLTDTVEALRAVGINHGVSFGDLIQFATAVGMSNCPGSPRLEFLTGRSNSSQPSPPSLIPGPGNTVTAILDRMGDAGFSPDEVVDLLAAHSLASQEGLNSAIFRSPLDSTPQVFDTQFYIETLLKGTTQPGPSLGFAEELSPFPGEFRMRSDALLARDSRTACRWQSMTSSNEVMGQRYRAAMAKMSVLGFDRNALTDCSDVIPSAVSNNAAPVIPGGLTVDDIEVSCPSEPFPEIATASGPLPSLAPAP
Experimental: (§1) The bleaching rate of Direct Blue 1 (DB1) by purified CiP was determined using the following conditions: […]
(§2) Reagents were mixed in a thermostated cuvette at 30° C. and the bleaching was started by addition of hydrogen peroxide. The bleaching was detected spectrophotometrically at 610 nm, which is the wavelength of the absorption peak of DB1. Bleaching was followed for 1 minute, and the initial reduction in absorbance, --ΔmAbs/minute, was determined.
Bleaching tests were performed in exactly the same way as described in Example 2 except that instead of using DB1 Chigaco Sky Blue (CSB) (obtainable from Aldrich) was used, and the following enhancers were tested: […]

[2] = molecular target: T1, Coprinus cinereus peroxidase (CiP); test: Initial bleaching of Direct Blue 1 with Coprinus cinereus peroxidase and enhancers; settings: 5 μM enhancer, 20 μM H2O2, 30° C.
Experimental: A Coprinus cinereus peroxidase (CiP), obtained as described in WO 9412621 was used.
Dilutions of CiP were made in a solution of 0.15 gram/l of Triton X-405.
as §1, §2

[3] = system: laccase obtained from Coprinus comatus; test: Bleaching of Direct Blue 1 using Coprinus comatus laccase and methylsyringate; settings: 10 μM methylsyringate, 30° C.
Experimental: (§3) Bleaching of the dye Direct Blue 1 at various pH values was conducted using a laccase obtained from Coprinus comatus, Coprinus friesii, Coprinus plicatilis, Panaeolus papilionaceus or Psathyrella condolleana and methylsyringate.
(§4) After fermentation the culture broths were centrifugated and the supernatants were used in the tests described below.
(§5) The bleaching rate of DB1 was determined using the following conditions: […]
(§6) Reagents were mixed in a 1 ml thermostated cuvette at 30° C. and the bleaching was started by addition of the laccase.
(§7) The bleaching was followed spectrophotometrically at 610 nm, which is the wavelength of the absorption peak of DB1, with readings every 5 sec. for a period of 5 minutes. The initial bleaching rate was determined from the first linear part of the absorbance curve.

[4] = system: laccase obtained from Coprinus friesii; test: Bleaching of Direct Blue 1 using Coprinus friesii laccase and methylsyringate; settings: 10 μM methylsyringate, 30° C.
Experimental: as §3, §4, §5, §6, §7

[5] = system: laccase obtained from Panaeolus papilionaceus; test: Bleaching of Direct Blue 1 using Panaeolus papilionaceus laccase and methylsyringate; settings: 10 μM methylsyringate, 30° C.
Experimental: as §3, §4, §5, §6, §7

[6] = system: laccase obtained from Psathyrella condolleana; test: Bleaching of Direct Blue 1 using Psathyrella condolleana laccase and methylsyringate; settings: 10 μM methylsyringate, 30° C.
Experimental: as §3, §4, §5, §6, §7

[7] = system: laccase obtained from Coprinus plicatilis; test: Bleaching of Direct Blue 1 using Coprinus plicatilis laccase and methylsyringate; settings: 10 μM methylsyringate, 30° C.
Experimental: as §3, §4, §5, §6, §7

[8] = molecular target: T2, Coprinus cinereus laccase (Coprinopsis cinerea, UniProt Q9Y780); test: Bleaching of Direct Blue 1 using Coprinus cinereus laccase with/without enhancing agents at pH 5.5-8.5; settings: C. cinereus laccase 1 mg/l, 10 μM enhancing agent, 30° C.
T2 sequence (Q9Y780 19-539): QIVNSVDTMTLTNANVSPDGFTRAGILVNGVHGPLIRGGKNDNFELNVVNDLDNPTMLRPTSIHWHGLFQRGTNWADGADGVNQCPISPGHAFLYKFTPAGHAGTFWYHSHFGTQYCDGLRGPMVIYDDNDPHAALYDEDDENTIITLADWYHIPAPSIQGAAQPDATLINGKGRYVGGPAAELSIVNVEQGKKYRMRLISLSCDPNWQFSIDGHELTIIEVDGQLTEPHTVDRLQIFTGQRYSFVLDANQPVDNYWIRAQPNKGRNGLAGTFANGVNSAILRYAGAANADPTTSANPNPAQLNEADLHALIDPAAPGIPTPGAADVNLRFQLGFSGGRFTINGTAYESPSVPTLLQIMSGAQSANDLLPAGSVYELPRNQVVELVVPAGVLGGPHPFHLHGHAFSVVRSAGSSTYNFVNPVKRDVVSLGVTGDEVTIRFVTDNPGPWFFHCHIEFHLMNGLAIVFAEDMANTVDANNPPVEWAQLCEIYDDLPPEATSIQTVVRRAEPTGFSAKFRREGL
Experimental: Bleaching of the dye Direct Blue 1 at various pH values was conducted using Coprinus cinereus laccase and one of the following enhancing agents:
The laccase was obtained in the following way: Coprinus cinereus (IFO 30116--freely available to the public from Institute of Fermentation, Osaka (IFO) under the indicated deposit number) was inoculated from a PDA agar slant (PDA: 39 g/l potato dextrose agar) into a 100 ml shake flask containing medium A (Medium A is described in Example 3). The culture was cultivated for 6 days at 26° C. and 100 rpm. A 10-liter fermentor containing medium A was inoculated with the 100 ml culture broth. The fermentation ran for 6 days at 26° C. and 100 rpm. The culture broth was filtrated and concentrated by ultrafiltration. Further purification was carried out using hydrophobic interaction chromatography followed by anionic exchange chromatography. This process resultated in a preparation with a laccase activity of 3.6 LACU/ml. The estimated purity was >80% on a protein basis.
The bleaching rate of DB1 was determined using the owing conditions: […]
as §6
The bleaching was followed spectrophotometrically at 610 nm, which is the wavelength of the absorption peak of DB1 with readings every 5 sec. for a period of 5 minutes. The initial bleaching rate was determined from the first linear part of the absorbance curve.

[9] = molecular target: T3, Trametes villosa laccase (Trametes villosa, UniProt Q99044); test: Bleaching of Direct Blue 1 with Trametes villosa laccase with and without enhancing agents; settings: 10 μM enhancer, 30° C.
T3 construct: made in house; host or cells: Trametes villosa CBS 678.70 (native producer), purified from culture broth
T3 sequence (Q99044 22-520): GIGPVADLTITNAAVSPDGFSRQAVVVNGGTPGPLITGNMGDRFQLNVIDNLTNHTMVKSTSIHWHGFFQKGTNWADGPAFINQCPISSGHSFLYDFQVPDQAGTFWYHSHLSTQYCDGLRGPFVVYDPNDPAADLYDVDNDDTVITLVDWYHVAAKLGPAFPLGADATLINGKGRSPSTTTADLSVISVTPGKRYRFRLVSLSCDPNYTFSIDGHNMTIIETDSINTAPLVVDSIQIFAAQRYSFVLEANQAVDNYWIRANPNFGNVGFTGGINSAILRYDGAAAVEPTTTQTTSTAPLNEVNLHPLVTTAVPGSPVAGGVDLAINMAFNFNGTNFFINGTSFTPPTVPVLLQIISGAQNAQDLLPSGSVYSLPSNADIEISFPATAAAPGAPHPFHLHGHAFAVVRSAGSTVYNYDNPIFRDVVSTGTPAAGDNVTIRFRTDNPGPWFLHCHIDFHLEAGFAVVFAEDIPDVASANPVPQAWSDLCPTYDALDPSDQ
Experimental: Laccase obtained from Trametes villosa: 800 ml culture broth of Trametes villosa, CBS 678.70, was filtered with filter aid to give a clear filtrate, which was concentrated and washed by ultrafiltration on a membrane with a cut-off of 6-8 kDa. One ml samples of concentrated preparation was applied onto a Q-Sepharose HP column (Pharmacia, Sweden) equilibrated with 0.1 M fosfate pH 7, and the laccase was eluted with a flat NaCl gradient around 0.25 M. Fractions with laccase activity from 10 runs were pooled and concentrated by ultrafiltration to an activity of 500 LACU/ml.
The following conditions were used: […]
Reagents were mixed in a 1 cm thermostated cuvette at 30° C. and the bleaching was started by addition of enzyme.
The bleaching was detected spectrophotometrically at 610 nm, which is the absorption peak of DB1. After 5 sec. bleaching was followed for 4 minutes.
Bleaching of Direct Blue 1 with Trametes villosa laccase, obtained as described above, at pH 5.5 (1.6 mg/l) and pH 7.0 (16 mg/l): […]

## CCOC(=O)C=Cc1cc(OC)c(O)c(OC)c1 [ethyl 3-(4-hydroxy-3,5-dimethoxyphenyl)acrylate]
[1]; pH 8.5, 0.08 mg/l CiP
  Initial Bleaching of CSB with CiP: 48 -ΔmAbs/minute
[1]; pH 10.5, 0.16 mg/l CiP
  Initial Bleaching of CSB with CiP: 48 -ΔmAbs/minute

## COC(=O)c1cc(OC)c(O)c(OC)c1 [methylsyringate]
[2]; pH 8.5, 0.08 mg/l CiP
  Initial Bleaching of Direct Blue 1 with CiP: 245 -ΔmAbs/minute
[2]; pH 10.5, 0.16 mg/l CiP
  Initial Bleaching of Direct Blue 1 with CiP: 8 -ΔmAbs/minute
[1]; pH 8.5, 0.08 mg/l CiP
  Initial Bleaching of CSB with CiP: 211 -ΔmAbs/minute
[1]; pH 10.5, 0.16 mg/l CiP
  Initial Bleaching of CSB with CiP: 42 -ΔmAbs/minute
[3]; C. comatus laccase 4 LACU/l, pH 5.5
  Initial bleaching rate of DB1: 33 -ΔmAbs/minute
[3]; C. comatus laccase 4 LACU/l, pH 7.0
  Initial bleaching rate of DB1: 23 -ΔmAbs/minute
[3]; C. comatus laccase 20 LACU/l, pH 8.5
  Initial bleaching rate of DB1: 2 -ΔmAbs/minute
[4]; C. friesii laccase 4 LACU/l, pH 5.5
  Initial bleaching rate of DB1: 40 -ΔmAbs/minute
[4]; C. friesii laccase 4 LACU/l, pH 7.0
  Initial bleaching rate of DB1: 55 -ΔmAbs/minute
[4]; C. friesii laccase 20 LACU/l, pH 8.5
  Initial bleaching rate of DB1: 61 -ΔmAbs/minute
[5]; Pan. papilionaceus laccase 4 LACU/l, pH 5.5
  Initial bleaching rate of DB1: 16 -ΔmAbs/minute
[5]; Pan. papilionaceus laccase 4 LACU/l, pH 7.0
  Initial bleaching rate of DB1: 19 -ΔmAbs/minute
[5]; Pan. papilionaceus laccase 20 LACU/l, pH 8.5
  Initial bleaching rate of DB1: 18 -ΔmAbs/minute
[6]; Ps. condolleana laccase 4 LACU/l, pH 5.5
  Initial bleaching rate of DB1: 45 -ΔmAbs/minute
[6]; Ps. condolleana laccase 4 LACU/l, pH 7.0
  Initial bleaching rate of DB1: 54 -ΔmAbs/minute
[6]; Ps. condolleana laccase 20 LACU/l, pH 8.5
  Initial bleaching rate of DB1: 43 -ΔmAbs/minute
[7]; C. plicalitis laccase 4 LACU/l, pH 5.5
  Initial bleaching rate of DB1: 42 -ΔmAbs/minute
[7]; C. plicalitis laccase 4 LACU/l, pH 7.0
  Initial bleaching rate of DB1: 39 -ΔmAbs/minute
[7]; C. plicalitis laccase 20 LACU/l, pH 8.5
  Initial bleaching rate of DB1: 14 -ΔmAbs/minute
[8]; pH 5.5
  Initial bleaching rate of DB1: 20 -ΔmAbs/minute
[8]; pH 7.0
  Initial bleaching rate of DB1: 94 -ΔmAbs/minute
[8]; pH 8.5
  Initial bleaching rate of DB1: 57 -ΔmAbs/minute

## CCCOC(=O)c1cc(OC)c(O)c(OC)c1 [propylsyringate]
[1]; pH 8.5, 0.08 mg/l CiP
  Initial Bleaching of CSB with CiP: 228 -ΔmAbs/minute
[1]; pH 10.5, 0.16 mg/l CiP
  Initial Bleaching of CSB with CiP: 60 -ΔmAbs/minute

## COc1cc(C=O)cc(OC)c1O [syringaldehyde]
[2]; pH 8.5, 0.08 mg/l CiP
  Initial Bleaching of Direct Blue 1 with CiP: 151 -ΔmAbs/minute
[2]; pH 10.5, 0.16 mg/l CiP
  Initial Bleaching of Direct Blue 1 with CiP: 4 -ΔmAbs/minute
[8]; pH 5.5
  Initial bleaching rate of DB1: 29 -ΔmAbs/minute
[8]; pH 7.0
  Initial bleaching rate of DB1: 79 -ΔmAbs/minute
[8]; pH 8.5
  Initial bleaching rate of DB1: 28 -ΔmAbs/minute
[9]; pH 5.5, Trametes villosa laccase 1.6 mg/l
  DB1 bleaching in 4 minutes: 438 -ΔmAbs/4 min
[9]; pH 7.0, Trametes villosa laccase 16 mg/l
  DB1 bleaching in 4 minutes: 112 -ΔmAbs/4 min

## CCCCCCOC(=O)c1cc(OC)c(O)c(OC)c1 [hexylsyringate]
[1]; pH 8.5, 0.08 mg/l CiP
  Initial Bleaching of CSB with CiP: 276 -ΔmAbs/minute
[1]; pH 10.5, 0.16 mg/l CiP
  Initial Bleaching of CSB with CiP: 36 -ΔmAbs/minute

## CCOC(=O)c1cc(OC)c(O)c(OC)c1 [ethylsyringate]
[1]; pH 8.5, 0.08 mg/l CiP
  Initial Bleaching of CSB with CiP: 240 -ΔmAbs/minute
[1]; pH 10.5, 0.16 mg/l CiP
  Initial Bleaching of CSB with CiP: 52 -ΔmAbs/minute

## CCCCOC(=O)c1cc(OC)c(O)c(OC)c1 [butylsyringate]
[1]; pH 8.5, 0.08 mg/l CiP
  Initial Bleaching of CSB with CiP: 228 -ΔmAbs/minute
[1]; pH 10.5, 0.16 mg/l CiP
  Initial Bleaching of CSB with CiP: 48 -ΔmAbs/minute

## CCCCCCCCOC(=O)c1cc(OC)c(O)c(OC)c1 [octylsyringate]
[1]; pH 8.5, 0.08 mg/l CiP
  Initial Bleaching of CSB with CiP: 192 -ΔmAbs/minute
[1]; pH 10.5, 0.16 mg/l CiP
  Initial Bleaching of CSB with CiP: 15 -ΔmAbs/minute
